Data as given in US20190256474A1, “N-PHENYL-2-(3-PHENYL-6-OXO-1,6-DIHYDROPYRIDAZIN-1-YL)ACETAMIDE DERIVATIVES FOR TREATING CYSTIC FIBROSIS” (Proteostasis Therapeutics, Inc., priority 2016, published 2019).

Target: T1, ΔF508-CFTR (Homo sapiens, UniProt P13569, DEL508-508)
T1 construct: Primary lung epithelial cells homozygous for the Cystic Fibrosis-causing ΔF508 mutation were differentiated; endogenous in cells; host or cells: primary human bronchial epithelial cells (hBE), ΔF508/ΔF508
Assay: hBE equivalent current (Ieq) assay, CFTR activity
Type: cell-based
Conditions: relative to a CFTR amplifier at 3 μM, ΔF508 homozygous hBE, 24 h treatment; for Activity 3 μM: compound at 3 μM; for Activity 10 μM: compound at 10 μM
Procedure: Primary lung epithelial cells homozygous for the Cystic Fibrosis-causing ΔF508 mutation were differentiated for a minimum of 4 weeks in an air-liquid interface on Costar 24 well HTS filter plates prior to the equivalent current (Ieq) measurements. Cells were apically mucus-washed for 30 minutes 24 h prior to treatment with compounds. The basolateral media was removed and replaced with media containing the compound of interest diluted to its final concentration from DMSO stocks. Treated cells were incubated at 37° C. and 5% CO2 for 24 hours. At the end of the treatment period, the media was changed to the Ieq experimental solution for 2 hours before the experiment and plates are maintained in a CO2-free incubator during this period. The plates containing the cells were then placed in pre-warmed heating blocks at 36° C.±0.5 for 15 minutes before measurements are taken. The transepithelial voltage (VT) and conductance (GT) were measured using a custom 24 channel current clamp (TECC-24) with 24 well electrode manifold. The Ieq assay measurements were made following additions with standardized time periods:
1. The baseline VT and GT values were measured for approximately 20 minutes.
2. Benzamil was added to block ENaC for 15 minutes.
3. Forskolin plus VX-770 were added to maximally activate ΔF508-CFTR for 27 minutes.
4. Bumetanide was added to inhibit the NaK2Cl cotransporter and shut-off secretion of chloride.
The activity data captured was the area under the curve (AUC) for the traces of the equivalent chloride current. The AUC was collected from the time of the forskolin/VX-770 addition until the inhibition by bumetanide addition. Correction in response to compound treatment was scored as the increase in the AUC for compound-treated samples over that of vehicle-treated samples.
The results are shown below in Table 1. + indicates activity <150% of a CFTR amplifier with compound at concentration shown and amplifier at 3 μM; ++ indicates activity >150% of a CFTR amplifier with compound at concentration shown and amplifier at 3 μM.

T1 sequence (P13569 with tags, fused parts or gaps DEL508-508): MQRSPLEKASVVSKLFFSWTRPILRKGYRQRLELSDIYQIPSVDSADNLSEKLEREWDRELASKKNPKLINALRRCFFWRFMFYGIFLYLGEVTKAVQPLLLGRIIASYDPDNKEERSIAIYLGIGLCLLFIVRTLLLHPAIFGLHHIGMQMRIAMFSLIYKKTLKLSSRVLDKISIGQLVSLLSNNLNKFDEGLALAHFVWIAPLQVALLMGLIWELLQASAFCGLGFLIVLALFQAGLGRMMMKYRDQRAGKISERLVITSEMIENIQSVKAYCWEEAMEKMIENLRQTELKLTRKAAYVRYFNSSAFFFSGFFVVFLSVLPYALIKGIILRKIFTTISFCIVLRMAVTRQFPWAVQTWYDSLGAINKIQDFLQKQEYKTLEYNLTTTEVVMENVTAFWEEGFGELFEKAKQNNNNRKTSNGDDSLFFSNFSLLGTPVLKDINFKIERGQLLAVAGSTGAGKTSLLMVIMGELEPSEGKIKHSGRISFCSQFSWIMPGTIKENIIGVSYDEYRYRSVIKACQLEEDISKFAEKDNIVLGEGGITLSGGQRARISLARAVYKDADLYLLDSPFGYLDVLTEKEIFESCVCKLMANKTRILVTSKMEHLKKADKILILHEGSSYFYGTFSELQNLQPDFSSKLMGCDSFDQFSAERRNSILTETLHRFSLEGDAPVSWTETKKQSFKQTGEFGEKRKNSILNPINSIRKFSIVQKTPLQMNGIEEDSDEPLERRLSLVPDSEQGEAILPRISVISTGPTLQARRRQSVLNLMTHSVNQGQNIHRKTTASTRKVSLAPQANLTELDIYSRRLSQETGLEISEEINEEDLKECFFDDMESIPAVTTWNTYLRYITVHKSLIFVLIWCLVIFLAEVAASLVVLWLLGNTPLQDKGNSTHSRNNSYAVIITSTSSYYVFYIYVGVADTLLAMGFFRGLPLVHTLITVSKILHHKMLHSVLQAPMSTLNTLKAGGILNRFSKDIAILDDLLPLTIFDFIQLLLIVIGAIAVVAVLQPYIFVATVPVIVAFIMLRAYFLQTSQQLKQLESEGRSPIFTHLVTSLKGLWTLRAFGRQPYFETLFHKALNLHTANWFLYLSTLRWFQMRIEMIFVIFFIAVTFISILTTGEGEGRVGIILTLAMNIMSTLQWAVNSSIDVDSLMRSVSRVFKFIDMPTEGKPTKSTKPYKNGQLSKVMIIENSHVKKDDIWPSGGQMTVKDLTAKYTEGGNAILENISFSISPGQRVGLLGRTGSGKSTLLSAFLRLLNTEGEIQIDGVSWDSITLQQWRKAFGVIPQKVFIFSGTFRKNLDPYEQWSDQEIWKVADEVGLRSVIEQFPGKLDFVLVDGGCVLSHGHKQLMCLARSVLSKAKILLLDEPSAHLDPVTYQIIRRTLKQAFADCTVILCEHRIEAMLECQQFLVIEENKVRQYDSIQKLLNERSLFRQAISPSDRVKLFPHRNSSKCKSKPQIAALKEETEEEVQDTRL

SMILES | Activity 3 μM | Activity 10 μM
COc1cccc(-c2ccc(=O)n(C(C)C(=O)Nc3cc(C(F)(F)F)cc(C(F)(F)F)c3)n2)c1 (centres unmarked) [Compound 41, N-(3,5-Bis(trifluoromethyl)phenyl)-2-(3-(3-methoxyphenyl)-6-oxopyridazin-1(6H)-yl)propanamide] | ++ (activity >150% of a CFTR amplifier with compound at concentration shown and amplifier at 3 μM) | ++ (activity >150% of a CFTR amplifier with compound at concentration shown and amplifier at 3 μM)
COc1cccc(-c2ccc(=O)n(C(C)C(=O)Nc3ccc(C(C)(C)C)cc3)n2)c1 (centres unmarked) [Compound 11, N-(4-tert-Butylphenyl)-2-[3-(3-methoxyphenyl)-6-oxo-1,6-dihydropyridazin-1-yl]propanamide] | – | + (activity <150% of a CFTR amplifier with compound at concentration shown and amplifier at 3 μM)
CC(C(=O)Nc1ccc(C(F)(F)F)cc1)n1nc(-c2ccc(C(F)(F)F)cc2)ccc1=O (centres unmarked) [Compound 34, 2-[6-Oxo-3-[4-(trifluoromethyl)phenyl]-1,6-dihydropyridazin-1-yl]-N-[4-(trifluoromethyl)phenyl]propanamide] | + (activity <150% of a CFTR amplifier with compound at concentration shown and amplifier at 3 μM) | + (activity <150% of a CFTR amplifier with compound at concentration shown and amplifier at 3 μM)
CC(C)Oc1cccc(-c2ccc(=O)n(C(C)C(=O)Nc3ccc(C(F)(F)F)cc3)n2)c1 (centres unmarked) [Compound 49, 2-[6-Oxo-3-[3-(propan-2-yloxy)phenyl]-1,6-dihydropyridazin-1-yl]-N-[4-(trifluoromethyl)phenyl]propanamide] | ++ (activity >150% of a CFTR amplifier with compound at concentration shown and amplifier at 3 μM) | ++ (activity >150% of a CFTR amplifier with compound at concentration shown and amplifier at 3 μM)
COc1cccc(-c2nn(C(C)C(=O)Nc3cc(F)cc(F)c3)c(=O)cc2-c2ccccc2)c1 (centres unmarked) [Compound 24, N-(3,5-Difluorophenyl)-2-[3-(3-methoxyphenyl)-6-oxo-4-phenyl-1,6-dihydropyridazin-1-yl]propanamide] | ++ (activity >150% of a CFTR amplifier with compound at concentration shown and amplifier at 3 μM) | ++ (activity >150% of a CFTR amplifier with compound at concentration shown and amplifier at 3 μM)
CC(C(=O)Nc1ccc(C(F)(F)F)cc1)n1nc(-c2ccccc2C(F)(F)F)ccc1=O (centres unmarked) [Compound 32, 2-[6-Oxo-3-[2-(trifluoromethyl)phenyl]-1,6-dihydropyridazin-1-yl]-N-[4-(trifluoromethyl)phenyl]propanamide] | + (activity <150% of a CFTR amplifier with compound at concentration shown and amplifier at 3 μM) | + (activity <150% of a CFTR amplifier with compound at concentration shown and amplifier at 3 μM)
COc1cccc(-c2ccc(=O)n(C(C)C(=O)Nc3ccccc3C(C)(C)C)n2)c1 (centres unmarked) [Compound 9, N-(2-tert-Butylphenyl)-2-[3-(3-methoxyphenyl)-6-oxo-1,6-dihydropyridazin-1-yl]propanamide] | + (activity <150% of a CFTR amplifier with compound at concentration shown and amplifier at 3 μM) | + (activity <150% of a CFTR amplifier with compound at concentration shown and amplifier at 3 μM)
CC(C(=O)Nc1ccc(C(F)(F)F)cc1)n1nc(-c2cccc(OCc3ccccc3)c2)ccc1=O (centres unmarked) [Compound 50, 2-[3-[3-(Benzyloxy)phenyl]-6-oxo-1,6-dihydropyridazin-1-yl]-N-[4-(trifluoromethyl)phenyl]propanamide] | ++ (activity >150% of a CFTR amplifier with compound at concentration shown and amplifier at 3 μM) | ++ (activity >150% of a CFTR amplifier with compound at concentration shown and amplifier at 3 μM)
COc1cccc(-c2ccc(=O)n(C(C)C(=O)Nc3cccc(C(C)(C)C)c3)n2)c1 (centres unmarked) [Compound 10, N-(3-tert-Butylphenyl)-2-[3-(3-methoxyphenyl)-6-oxo-1,6-dihydropyridazin-1-yl]propanamide] | – | ++ (activity >150% of a CFTR amplifier with compound at concentration shown and amplifier at 3 μM)
COc1cccc(-c2cc(C)c(=O)n(C(C)C(=O)Nc3cc(F)cc(F)c3)n2)c1 (centres unmarked) [Compound 20, N-(3,5-Difluorophenyl)-2-[3-(3-methoxyphenyl)-5-methyl-6-oxo-1,6-dihydropyridazin-1-yl]propanamide] | + (activity <150% of a CFTR amplifier with compound at concentration shown and amplifier at 3 μM) | + (activity <150% of a CFTR amplifier with compound at concentration shown and amplifier at 3 μM)
COc1cccc(-c2nn(C(C)C(=O)Nc3cc(F)cc(F)c3)c(=O)cc2Cl)c1 (centres unmarked) [Compound 23, 2-(4-Chloro-3-(3-methoxyphenyl)-6-oxopyridazin-1(6H)-yl)-N-(3,5-difluorophenyl)propanamide] | – | + (activity <150% of a CFTR amplifier with compound at concentration shown and amplifier at 3 μM)
COc1cccc(-c2ccc(=O)n(C(C(=O)Nc3ccc(C(F)(F)F)cc3)c3ccccc3)n2)c1 (centres unmarked) [Compound 40, 2-(3-(3-Methoxyphenyl)-6-oxopyridazin-1(6H)-yl)-2-phenyl-N-(4-(trifluoromethyl)phenyl)acetamide] | ++ (activity >150% of a CFTR amplifier with compound at concentration shown and amplifier at 3 μM) | + (activity <150% of a CFTR amplifier with compound at concentration shown and amplifier at 3 μM)
COc1cccc(-c2ccc(=O)n(C(C(=O)Nc3ccc(C(F)(F)F)cc3)C3CC3)n2)c1 (centres unmarked) [Compound 39, 2-Cyclopropyl-2-(3-(3-methoxyphenyl)-6-oxopyridazin-1(6H)-yl)-N-(4-(trifluoromethyl)phenyl)acetamide] | ++ (activity >150% of a CFTR amplifier with compound at concentration shown and amplifier at 3 μM) | ++ (activity >150% of a CFTR amplifier with compound at concentration shown and amplifier at 3 μM)
COc1cccc(-c2cc(Cl)c(=O)n(C(C)C(=O)Nc3cc(F)cc(F)c3)n2)c1 (centres unmarked) [Compound 22, 2-(5-Chloro-3-(3-methoxyphenyl)-6-oxopyridazin-1(6H)-yl)-N-(3,5-difluorophenyl)propanamide] | + (activity <150% of a CFTR amplifier with compound at concentration shown and amplifier at 3 μM) | + (activity <150% of a CFTR amplifier with compound at concentration shown and amplifier at 3 μM)
CCOc1cccc(-c2ccc(=O)n(C(C)C(=O)Nc3ccc(C(F)(F)F)cc3)n2)c1 (centres unmarked) [Compound 48, 2-[3-(3-Ethoxyphenyl)-6-oxo-1,6-dihydropyridazin-1-yl]-N-[4-(trifluoromethyl)phenyl]propanamide] | ++ (activity >150% of a CFTR amplifier with compound at concentration shown and amplifier at 3 μM) | ++ (activity >150% of a CFTR amplifier with compound at concentration shown and amplifier at 3 μM)
CC(C(=O)Nc1ccc(C(F)(F)F)cc1)n1nc(-c2cccc(Cl)c2)ccc1=O (centres unmarked) [Compound 30, 2-[3-(3-Chlorophenyl)-6-oxo-1,6-dihydropyridazin-1-yl]-N-[4-(trifluoromethyl)phenyl]propanamide] | ++ (activity >150% of a CFTR amplifier with compound at concentration shown and amplifier at 3 μM) | ++ (activity >150% of a CFTR amplifier with compound at concentration shown and amplifier at 3 μM)
CC(C(=O)Nc1ccc(C(F)(F)F)cc1)n1nc(-c2ccccc2C#N)ccc1=O (centres unmarked) [Compound 35, 2-[3-(2-Cyanophenyl)-6-oxo-1,6-dihydropyridazin-1-yl]-N-[4-(trifluoromethyl)phenyl]propanamide] | + (activity <150% of a CFTR amplifier with compound at concentration shown and amplifier at 3 μM) | + (activity <150% of a CFTR amplifier with compound at concentration shown and amplifier at 3 μM)
COc1cccc(-c2ccc(=O)n(C(C)C(=O)Nc3ccc(C#N)cc3)n2)c1 (centres unmarked) [Compound 44, N-(4-Cyanophenyl)-2-(3-(3-methoxyphenyl)-6-oxopyridazin-1(6H)-yl)propanamide] | + (activity <150% of a CFTR amplifier with compound at concentration shown and amplifier at 3 μM) | + (activity <150% of a CFTR amplifier with compound at concentration shown and amplifier at 3 μM)
COc1ccc(F)c(-c2ccc(=O)n(C(C)C(=O)Nc3ccc(C(F)(F)F)cc3)n2)c1 (centres unmarked) [Compound 52, 2-[3-(2-Fluoro-5-methoxyphenyl)-6-oxo-1,6-dihydropyridazin-1-yl]-N-[4-(trifluoromethyl)phenyl]propanamide] | ++ (activity >150% of a CFTR amplifier with compound at concentration shown and amplifier at 3 μM) | ++ (activity >150% of a CFTR amplifier with compound at concentration shown and amplifier at 3 μM)
